Results published in patent US11554118B2 (priority 2017, dated 2023).
Like-named read-outs stand apart in the source and are kept apart here.

Tests used:
Btk [1] = molecular target: Btk (Mus musculus (Mouse), UniProt P35991); assay: Btk occupancy in vivo (PCI-33380 labeling of PBMCs or splenocytes); design: species or system BALB/c mice; details: Babc/L mice, after 4 hours
Description: For analysis of Btk occupancy in Babc/L mice following oral dosing of compounds after 4 hours. Isolating peripheral blood mononuclear cells (PBMCs) with mouse peripheral blood separation kit (Hao Yang Biological Manufacture CO., LTD, Tianjin) were collected from Babc/L mice (1 ml blood from two mice). Spleens were processed to splenocytes followed by 5 min incubation in red blood cell lysing buffer (from mouse peripheral blood separation kit).

BTK [2] = molecular target: BTK (Homo sapiens (Human), UniProt Q06187); assay: biochemical
BTK, sequence (Q06187 whole entry, looked up, species assumed): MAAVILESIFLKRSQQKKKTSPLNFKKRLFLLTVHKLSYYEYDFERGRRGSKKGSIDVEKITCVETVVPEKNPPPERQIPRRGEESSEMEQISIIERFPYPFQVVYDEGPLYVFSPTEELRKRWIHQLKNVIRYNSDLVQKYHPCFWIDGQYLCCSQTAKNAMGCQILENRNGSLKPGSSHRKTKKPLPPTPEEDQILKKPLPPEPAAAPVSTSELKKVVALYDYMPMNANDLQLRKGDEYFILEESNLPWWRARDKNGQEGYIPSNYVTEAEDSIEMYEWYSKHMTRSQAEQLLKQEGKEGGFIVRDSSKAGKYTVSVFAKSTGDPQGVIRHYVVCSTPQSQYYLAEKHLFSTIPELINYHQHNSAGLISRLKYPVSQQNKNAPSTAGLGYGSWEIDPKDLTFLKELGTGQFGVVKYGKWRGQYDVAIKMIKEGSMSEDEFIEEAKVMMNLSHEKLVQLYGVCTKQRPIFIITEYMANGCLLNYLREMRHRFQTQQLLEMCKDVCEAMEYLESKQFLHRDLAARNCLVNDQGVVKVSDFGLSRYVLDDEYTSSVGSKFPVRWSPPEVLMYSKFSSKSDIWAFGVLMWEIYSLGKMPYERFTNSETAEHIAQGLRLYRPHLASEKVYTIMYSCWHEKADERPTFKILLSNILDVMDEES
Description: Btk kinase activity was determined using a homogenous time resolved fluorescence (HTRF) methodology. Measurements were performed in a reaction volume of 15 μL using 384-well assay plates. Kinase enzyme, inhibitor, ATP and 1 M peptide substrate were incubated in a reaction buffer compose of Hepes 50 mM (pH7.0), NaN3 0.02%, BSA 0.01%, Orthocanadate 0.1 mM. […] For each compound, enzyme activity as measured at various concentrations of compound, Negative control reactions were performed in the absence of inhibitor in two replicates and eight no enzyme controls were used to determine baseline fluorescence levels.

Btk, sequence (P35991 whole entry, looked up): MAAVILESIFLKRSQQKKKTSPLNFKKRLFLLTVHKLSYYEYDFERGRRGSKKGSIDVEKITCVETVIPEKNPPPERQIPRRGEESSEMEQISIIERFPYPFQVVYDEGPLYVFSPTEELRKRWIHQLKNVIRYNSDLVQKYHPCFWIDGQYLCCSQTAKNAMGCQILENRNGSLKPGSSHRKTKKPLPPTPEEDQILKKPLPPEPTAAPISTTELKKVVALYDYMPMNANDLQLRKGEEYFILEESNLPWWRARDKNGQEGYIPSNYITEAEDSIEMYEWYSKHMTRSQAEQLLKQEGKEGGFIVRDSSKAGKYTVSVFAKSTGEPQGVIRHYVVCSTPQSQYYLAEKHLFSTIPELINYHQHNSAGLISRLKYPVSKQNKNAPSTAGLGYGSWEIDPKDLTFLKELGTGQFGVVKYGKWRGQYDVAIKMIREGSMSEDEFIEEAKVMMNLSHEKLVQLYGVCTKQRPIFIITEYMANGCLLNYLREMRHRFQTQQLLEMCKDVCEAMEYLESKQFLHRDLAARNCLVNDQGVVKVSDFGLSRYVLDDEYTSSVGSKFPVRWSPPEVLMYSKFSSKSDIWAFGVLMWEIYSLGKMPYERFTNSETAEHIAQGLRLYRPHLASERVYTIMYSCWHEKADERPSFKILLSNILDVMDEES

With `C=CC(=O)N1CCC[C@@H](c2nc(-c3ccc(Oc4cccc(OC)c4F)cc3)c3cnccn23)C1` [Compound 1, (R)-1-(3-(1-(4-(2-fluoro-3-methoxyphenoxy)phenyl)imidazo[1,5-a]pyrazin-3-yl)piperidin-1-yl)prop-2-en-1-one] as the compound, how does the “Btk occupancy in vivo” value (Btk [1]; 5 mg/kg single oral dose) read?
The value was “full occupancy”.

For `C=CC(=O)N1CCCC[C@H]1c1nc(-c2ccc(Oc3cccc(OC)c3F)cc2)c2c(C)nccn12` [Compound 27, (S)-1-(2-(1-(4-(2-fluoro-3-methoxyphenoxy)phenyl)-8-methylimidazo[1,5-a]pyrazin-3-yl)piperidin-1-yl)prop-2-en-1-one], which “Btk occupancy in vivo” value (Btk [1]; 10 mg/kg single oral dose) is on record?
Its value is “full occupancy”.

How did the “Btk occupancy in vivo” value (Btk [1]; 5 mg/kg single oral dose) turn out when `C=CC(=O)N1CCC[C@H]1c1nc(-c2ccc(Oc3cccc(OC)c3F)cc2)c2cnccn12` [Compound 30, (S)-1-(2-(1-(4-(2-fluoro-3-methoxyphenoxy)phenyl)imidazo[1,5-a]pyrazin-3-yl)pyrrolidin-1-yl)prop-2-en-1-one] was run?
The value was “full occupancy”.

`CC#CC(=O)N1CC[C@@H](c2nc(-c3ccc(C(=O)Nc4cc(C(F)(F)F)ccn4)cc3)c3cncc(OCC)n23)C1` [Compound 196, (R)-4-(3-(1-(but-2-ynoyl)pyrrolidin-3-yl)-5-ethoxyimidazo[1,5-a]pyrazin-1-yl)-N-(4-(trifluoromethyl)pyridin-2-yl)benzamide] was tested. Which IC50 (BTK [2]) did it give?
The IC50 was 100 to 1000 nM.

How did the IC50 (BTK [2]; read-out: BTK Inhibition) turn out when `C=CC(=O)N1CC[C@@H](c2nc(-c3ccc(C(=O)Nc4cc(C(F)(F)F)ccn4)cc3F)c3cncc(OCC)n23)C1` [Compound 197, (R)-4-(3-(1-acryloylpyrrolidin-3-yl)-5-ethoxyimidazo[1,5-a]pyrazin-1-yl)-3-fluoro-N-(4-(trifluoromethyl)pyridin-2-yl)benzamide] was run?
The IC50 was under 10 nM.

Which IC50 (BTK [2]) does the source give for `CC#CC(=O)N1CC[C@@H](c2nc(-c3ccc(C(=O)Nc4cc(C(F)(F)F)ccn4)cc3F)c3cncc(OCC)n23)C1` [Compound 198, (R)-4-(3-(1-(but-2-ynoyl)pyrrolidin-3-yl)-5-ethoxyimidazo[1,5-a]pyrazin-1-yl)-3-fluoro-N-(4-(trifluoromethyl)pyridin-2-yl)benzamide] here?
The IC50 was 10 to 100 nM.

With `CC#CC(=O)N1CCC[C@H]1c1nc(-c2ccc(C(=O)Nc3cc(C(F)(F)F)ccn3)cc2)c2cncc(OCC)n12` [Compound 203, (S)-4-(3-(1-(but-2-ynoyl)pyrrolidin-2-yl)-5-ethoxyimidazo[1,5-a]pyrazin-1-yl)-N-(4-(trifluoromethyl)pyridin-2-yl)benzamide] as the compound, how does the IC50 (BTK [2]) read?
The IC50 was 100 to 1000 nM.

With `C=CC(=O)N1CCC[C@H]1c1nc(-c2ccc(C(=O)Nc3cc(C(F)(F)F)ccn3)cc2)c2cncc(OCC)n12` [Compound 204, (S)-4-(3-(1-acryloylpyrrolidin-2-yl)-5-ethoxyimidazo[1,5-a]pyrazin-1-yl)-N-(4-(trifluoromethyl)pyridin-2-yl)benzamide] as the compound, how does the IC50 (BTK [2]; read-out: BTK Inhibition) read?
Its IC50 is under 10 nM.
